In publication PMC7156458, “Synthetic biology based construction of biological activity-related library of fungal decalin-containing diterpenoid pyrones” (Nature Communications, 2020):

Target: Aβ42 (Homo sapiens, UniProt P05067)
Test: Th-T (thioflavin-T) assay of Aβ42 aggregation
Type: biochemical
Conditions: for Th-T fluorescence, mean of three wells: Aβ42 aggregation time course

Chain of Aβ42 (P05067 672-713): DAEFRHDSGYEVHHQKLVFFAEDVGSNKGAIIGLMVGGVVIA

C=C1CCC2C(C)(CCC=C(C)C)C(O)CCC2(C)C1Cc1c(OC)oc(C)c(C(=O)OC)c1=O (stereo not drawn) [Compound 14]
delay of the nucleation phase: no delay
elongation of Aβ42: partly suppressed the elongation of Aβ42
first Th-T assay result (Aβ42 (10 μM) ± DPPs (20 μM), room temperature): suppressed Aβ42
Th-T fluorescence, mean of three wells (reading M117): 1.655
Th-T fluorescence, mean of three wells (reading M118): 1.6572
Th-T fluorescence, mean of three wells (reading M119): 1.678
Th-T fluorescence, mean of three wells (reading M120): 1.679
Th-T fluorescence, mean of three wells (reading M121): 1.668
Th-T fluorescence, mean of three wells (reading M122): 1.683
Th-T fluorescence, mean of three wells (reading M123): 1.681
Th-T fluorescence, mean of three wells (reading M124): 1.6777
Th-T fluorescence, mean of three wells (reading M125): 1.687
Th-T fluorescence, mean of three wells (reading M126): 1.688
Th-T fluorescence, mean of three wells (reading M127): 1.689
Th-T fluorescence, mean of three wells (reading M128): 1.7014
Th-T fluorescence, mean of three wells (reading M129): 1.701
Th-T fluorescence, mean of three wells (reading M130): 1.6991
Th-T fluorescence, mean of three wells (Fig. 7a) (column suffix _10, measurement M19): 1.991
Th-T fluorescence, mean of three wells (Fig. 7a) (column suffix _10, measurement M20): 2.087
Th-T fluorescence, mean of three wells (Fig. 7a) (column suffix _10, measurement M21): 2.17
Th-T fluorescence, mean of three wells (Fig. 7a) (column suffix _10, measurement M22): 2.206
Th-T fluorescence, mean of three wells (Fig. 7a) (column suffix _10, measurement M23): 2.232
Th-T fluorescence, mean of three wells (Fig. 7a) (column suffix _10, measurement M24): 2.258
Th-T fluorescence, mean of three wells (Fig. 7a) (column suffix _10, measurement M25): 2.291
Th-T fluorescence, mean of three wells (Fig. 7a) (column suffix _10, measurement M26): 2.3072
Th-T fluorescence, mean of three wells (Fig. 7a) (column suffix _10, measurement M27): 2.333
Th-T fluorescence, mean of three wells (Fig. 7a) (column suffix _10, measurement M28): 2.3263
Th-T fluorescence, mean of three wells (Fig. 7a) (column suffix _10, measurement M29): 2.338
Th-T fluorescence, mean of three wells (Fig. 7a) (column suffix _10, measurement M30): 2.363
Th-T assay signal, mean of three wells (Fig. 7a) (column suffix _10, reading M1): 0.2293
Th-T assay signal, mean of three wells (Fig. 7a) (column suffix _10, reading M2): 0.2207
Th-T assay signal, mean of three wells (Fig. 7a) (column suffix _10, reading M3): 0.2333
Th-T assay signal, mean of three wells (Fig. 7a) (column suffix _10, reading M4): 0.2495
Th-T assay signal, mean of three wells (Fig. 7a) (column suffix _10, reading M5): 0.2748
Th-T assay signal, mean of three wells (Fig. 7a) (column suffix _10, reading M6): 0.3168
Th-T assay signal, mean of three wells (Fig. 7a) (column suffix _10, reading M7): 0.3327
Th-T assay signal, mean of three wells (Fig. 7a) (column suffix _10, reading M8): 0.3584
Th-T assay signal, mean of three wells (Fig. 7a) (column suffix _10, reading M9): 0.3937
Th-T assay signal, mean of three wells (Fig. 7a) (column suffix _10, reading M10): 0.4248
Th-T assay signal, mean of three wells (Fig. 7a) (column suffix _10, reading M11): 0.4498
Th-T assay signal, mean of three wells (Fig. 7a) (column suffix _10, reading M12): 0.5064
Th-T assay signal, mean of three wells (Fig. 7a) (column suffix _10, reading M13): 0.6552
Th-T assay signal, mean of three wells (Fig. 7a) (column suffix _10, reading M14): 0.8811
Th-T assay signal, mean of three wells (Fig. 7a) (column suffix _10, reading M15): 1.163
Th-T assay signal, mean of three wells (Fig. 7a) (column suffix _10, reading M16): 1.433
Th-T assay signal, mean of three wells (Fig. 7a) (column suffix _10, reading M17): 1.668
Th-T assay signal, mean of three wells (Fig. 7a) (column suffix _10, reading M18): 1.846
Fig. 7a Th-T reading, mean of three wells (column suffix _10, reading M85): 2.79
Fig. 7a Th-T reading, mean of three wells (column suffix _10, reading M86): 2.788
Fig. 7a Th-T reading, mean of three wells (column suffix _10, reading M87): 2.811
Fig. 7a Th-T reading, mean of three wells (column suffix _10, reading M88): 2.833
Fig. 7a Th-T reading, mean of three wells (column suffix _10, reading M89): 2.856
Fig. 7a Th-T reading, mean of three wells (column suffix _10, reading M90): 2.853
Fig. 7a Th-T reading, mean of three wells (column suffix _10, reading M91): 2.848
Fig. 7a Th-T reading, mean of three wells (column suffix _10, reading M92): 2.836
Fig. 7a Th-T reading, mean of three wells (column suffix _10, reading M93): 2.868
Fig. 7a Th-T reading, mean of three wells (column suffix _10, reading M94): 2.853
Fig. 7a Th-T reading, mean of three wells (column suffix _10, reading M95): 2.8555
Fig. 7a Th-T reading, mean of three wells (column suffix _10, reading M96): 2.819
Fig. 7a Th-T reading, mean of three wells (column suffix _10, reading M97): 2.823
Fig. 7a Th-T reading, mean of three wells (column suffix _10, reading M98): 2.843
Fig. 7a Th-T reading, mean of three wells (column suffix _10, reading M99): 2.862
Fig. 7a Th-T reading, mean of three wells (column suffix _10, reading M100): 2.849
Fig. 7a Th-T reading, mean of three wells (column suffix _10, reading M101): 2.83
Fig. 7a Th-T reading, mean of three wells (column suffix _10, reading M102): 2.84
Fig. 7a Th-T reading, mean of three wells (column suffix _10, reading M103): 2.843
Fig. 7a Th-T reading, mean of three wells (column suffix _10, reading M104): 2.878
Fig. 7a Th-T reading, mean of three wells (column suffix _10, reading M105): 2.894
Fig. 7a Th-T reading, mean of three wells (column suffix _10, reading M106): 2.859
Th-T fluorescence, mean of three wells (Fig. 7a) (column suffix _20, measurement M19): 1.051
Th-T fluorescence, mean of three wells (Fig. 7a) (column suffix _20, measurement M20): 1.16
Th-T fluorescence, mean of three wells (Fig. 7a) (column suffix _20, measurement M21): 1.235
Th-T fluorescence, mean of three wells (Fig. 7a) (column suffix _20, measurement M22): 1.279
Th-T fluorescence, mean of three wells (Fig. 7a) (column suffix _20, measurement M23): 1.352
Th-T fluorescence, mean of three wells (Fig. 7a) (column suffix _20, measurement M24): 1.3992
Th-T fluorescence, mean of three wells (Fig. 7a) (column suffix _20, measurement M25): 1.478
Th-T fluorescence, mean of three wells (Fig. 7a) (column suffix _20, measurement M26): 1.556
Th-T fluorescence, mean of three wells (Fig. 7a) (column suffix _20, measurement M27): 1.595
Th-T fluorescence, mean of three wells (Fig. 7a) (column suffix _20, measurement M28): 1.672
Th-T fluorescence, mean of three wells (Fig. 7a) (column suffix _20, measurement M29): 1.711
Th-T assay signal, mean of three wells (Fig. 7a) (column suffix _20, reading M1): 0.305
Th-T assay signal, mean of three wells (Fig. 7a) (column suffix _20, reading M2): 0.2567
Th-T assay signal, mean of three wells (Fig. 7a) (column suffix _20, reading M3): 0.2803
Th-T assay signal, mean of three wells (Fig. 7a) (column suffix _20, reading M4): 0.2741
Th-T assay signal, mean of three wells (Fig. 7a) (column suffix _20, reading M5): 0.2931
Th-T assay signal, mean of three wells (Fig. 7a) (column suffix _20, reading M6): 0.3005
Th-T assay signal, mean of three wells (Fig. 7a) (column suffix _20, reading M7): 0.3085
Th-T assay signal, mean of three wells (Fig. 7a) (column suffix _20, reading M8): 0.3015
Th-T assay signal, mean of three wells (Fig. 7a) (column suffix _20, reading M9): 0.3254
Th-T assay signal, mean of three wells (Fig. 7a) (column suffix _20, reading M10): 0.3505
Th-T assay signal, mean of three wells (Fig. 7a) (column suffix _20, reading M11): 0.3712
Th-T assay signal, mean of three wells (Fig. 7a) (column suffix _20, reading M12): 0.4273
Th-T assay signal, mean of three wells (Fig. 7a) (column suffix _20, reading M13): 0.4951
Th-T assay signal, mean of three wells (Fig. 7a) (column suffix _20, reading M14): 0.5807
Th-T assay signal, mean of three wells (Fig. 7a) (column suffix _20, reading M15): 0.6574
Th-T assay signal, mean of three wells (Fig. 7a) (column suffix _20, reading M16): 0.7497
Th-T assay signal, mean of three wells (Fig. 7a) (column suffix _20, reading M17): 0.8453
Th-T assay signal, mean of three wells (Fig. 7a) (column suffix _20, reading M18): 0.9743
Fig. 7a Th-T reading, mean of three wells (column suffix _20, reading M85): 1.842
Fig. 7a Th-T reading, mean of three wells (column suffix _20, reading M86): 1.882
Fig. 7a Th-T reading, mean of three wells (column suffix _20, reading M87): 1.842
Fig. 7a Th-T reading, mean of three wells (column suffix _20, reading M88): 1.862
Fig. 7a Th-T reading, mean of three wells (column suffix _20, reading M89): 1.848
Fig. 7a Th-T reading, mean of three wells (column suffix _20, reading M90): 1.855
Fig. 7a Th-T reading, mean of three wells (column suffix _20, reading M91): 1.818
Fig. 7a Th-T reading, mean of three wells (column suffix _20, reading M92): 1.795
Fig. 7a Th-T reading, mean of three wells (column suffix _20, reading M93): 1.7999
Fig. 7a Th-T reading, mean of three wells (column suffix _20, reading M94): 1.805
Fig. 7a Th-T reading, mean of three wells (column suffix _20, reading M95): 1.783
Fig. 7a Th-T reading, mean of three wells (column suffix _20, reading M96): 1.793
Fig. 7a Th-T reading, mean of three wells (column suffix _20, reading M97): 1.78
Fig. 7a Th-T reading, mean of three wells (column suffix _20, reading M98): 1.799
Fig. 7a Th-T reading, mean of three wells (column suffix _20, reading M99): 1.789
Fig. 7a Th-T reading, mean of three wells (column suffix _20, reading M100): 1.781
